{
  "source": "patent US20240366623A1",
  "about": "“COMPOSITIONS FOR PREVENTING OR TREATING CHARCOT-MARIE-TOOTH DISEASE (CMT)” (Chong Kun Dang Pharmaceutical Corp., priority 2021, published 2024)",
  "test_system": "Gars^P234KY CMT2D motor neurons (CMT2D MNs)",
  "assay": "Mitochondrial axon transport assay (MATA) in Gars^P234KY CMT2D motor neurons",
  "format": "cell-based, human",
  "conditions": "two hours; for Relative velocity (Mean ± SEM): WT MNs group set to 1; for Increased velocity: recovery relative to WT (100) and CMT2D vehicle (0)",
  "protocol": "The effect of the compound of the present disclosure on axonal mitochondrial movement in motor neurons derived from a human iPSC-based model of Gars^P234KY CMT2D (hereinafter referred to as “CMT2D MNs”) was evaluated as follows.\nWild type (WT) and Gars^P234KY induced pluripotent stem cell (iPSC) were provided from Samsung Medical Center (IRB No. 2016-12-001), transferred to a CKD pharmacology research laboratory before an experiment, and differentiated into motor neurons according to the following protocol. To produce embryoid bodies, a colony of iPSC was dissociated into small clumps by using enzymes and cultured in suspension in a Petri dish for two days. Culture medium was supplemented with 10 μM Y27632 (Rho-associated kinase inhibitor; Y0503, Tocris Bioscience, Bristol, UK), 20 ng/mL bFGF (PHG0024, Gibco), 10 μM SB435142 (SMAD inhibitor; S4317, Sigma), 0.2 μM LDN193189 (SMAD inhibitor; SML0559, Sigma) and penicillin/streptomycin (15140122, Gibco). On day 5, for […], 1 μM retinoic acid (R2625, Sigma), 0.4 μg/mL ascorbic acid (A4544, Sigma), 10 ng/mL brain-derived neurotrophic factor (BDNF; SRP3014, Sigma) and 1% N2 supplement (17502048, Gibco) were added. On day 7, for ventralization, SB435142 and LDN193189 (SMAD inhibitor) were washed, and 1 μM purmorphamine (Sonic hedgehog agonist; SML0868, Sigma) were added. On day 17, cells were cultured in Neurobasal medium [prepared on day 7 and supplemented with 10 ng/mL IGF-1 (I3769, Sigma), 10 ng/mL GDNF (G1777, Gibco) and 10 ng/mL 2% B-27™ (A1486701, Gibco)]. The cells were cultured in suspension in a Petri dish. After day 21, neurospheres were isolated with Accutase™ (A1110501, Gibco), plated on a poly-L-lysine/laminin-coated culture dish or a confocal dish (211350, SPL), and supplemented with all previous factors and Neurobasal medium containing 25 μM β-mercaptoethanol (21985023, Gibco) and 25 μM glutamic acid (G1626, Sigma).\nDifferentiated nerve cells were treated with compound 43 (20, 300, and 500 nM) of the present disclosure for two hours, respectively. For the control group, the cells were incubated in a medium containing DMSO (D2650-5X 10 ML, Sigma) at a final concentration of 0.05%. For mitochondrial staining, 0.01 nM Mitotracker Red CMXRos (M7512, Life technologies, NY, USA) was treated for 15 minutes immediately before imaging.\nThe axonal movement of mitochondria from the neuron's axon was imaged with a confocal microscope (Leica SP8; Leica microsystems, UK) equipped with a live cell imaging chamber (Live-cell instrument, Seoul, Korea), which maintains the cells at 37° C. in an atmosphere of 5% CO2/95% air. Time-lapse image recordings were taken at an exposure time of […] at an interval of one second for one minute, and the images were analyzed with IMARIS software (BITPLANE, Zurich, Switzerland) to calculate an instantaneous velocity. By using the IMARIS, each mitochondria in an axonal portion of a neuron were captured as an individual particle for each frame. To select an optimal velocity range, the instantaneous velocity of each mitochondrion at each time point was plotted as a histogram at an interval of 0.5 μm/sec. A velocity range in which an instantaneous velocity of the CMT2D MNs group was reduced by about 40% compared to an instantaneous velocity of the WT MNs group was selected, and then the data were normalized to set the velocity of the WT MNs group to 1. In this way, the recovery effect of the compound of the present disclosure on mitochondrial velocity was calculated as a single relative value, and GraphPad Prism 5 (GraphPad Software, Inc., USA) was used to count and plot the frequency of the instantaneous velocity.\nOne-way ANOVA was performed with GraphPad Prism 5.0 software (post hoc: Dunnett's multiple comparison test) and all data were expressed as mean±SEM.",
  "data": [
    {"smiles": "O=C(N1CCS(=O)(=O)CC1)N(Cc1ccc(-c2nnc(C(F)F)o2)cn1)c1ccccc1", "note": "[Compound 43, N-((5-(5-(difluoromethyl)-1,3,4-oxadiazol-2-yl)pyridin-2-yl)methyl)-N-phenylthiomorpholine-4-carboxamide 1,1-dioxide]", "values": [
      {"measurement": "Relative velocity (Mean ± SEM)", "setting": "20 nM", "value": "0.823 ± 0.102"},
      {"measurement": "Increased velocity", "setting": "20 nM", "value": 54.5, "unit": "%"},
      {"measurement": "Relative velocity (Mean ± SEM)", "setting": "300 nM", "value": "0.946 ± 0.130"},
      {"measurement": "Increased velocity", "setting": "300 nM", "value": 86.1, "unit": "%"},
      {"measurement": "Relative velocity (Mean ± SEM)", "setting": "500 nM", "value": "1.166 ± 0.207"},
      {"measurement": "Increased velocity", "setting": "500 nM", "value": 142.7, "unit": "%"}
    ]}
  ]
}
